Like-named read-outs stand apart in the source and are kept apart here.
System: 134 cancer cell lines
Assay: Cell viability assay (ATPlite, 72 hours), IC50 on cancer cell line panel

## Cc1cc(Nc2ncc(Cl)c(Nc3ccccc3S(=O)(=O)C(C)C)n2)c(OC(C)C)cc1C1CCNCC1 [ceritinib]
Homo sapiens, MOLT-4, read-out: IC50 in cell proliferation assay, MOLT-4 cell line
  IC50: 3760 nM
Homo sapiens, MV4-11, read-out: IC50 in cell proliferation assay, MV4-11 cell line (FLT3 ITD)
  IC50: 1230 nM
Homo sapiens, MeWo, read-out: IC50 in cell proliferation assay, MeWo cell line
  IC50: 3200 nM
Homo sapiens, NCCIT, read-out: IC50 in cell proliferation assay, NCC-IT cell line
  IC50: 3110 nM
Homo sapiens, NCI-H82, read-out: IC50 in cell proliferation assay, cell line NCI-H82
  IC50: 1570 nM
Homo sapiens, NCI-H460, read-out: IC50 in cell proliferation assay, NCI-H460 cell line
  IC50: 3160 nM
Homo sapiens, NCI-H661, read-out: IC50 in cell proliferation assay, NCI-H661 cell line
  IC50: 3470 nM
Homo sapiens, NCI-H716, read-out: IC50 in cell proliferation assay, cell line NCI-H716 (FGFR2-COL14A1)
  IC50: 1550 nM
Homo sapiens, NCI-H1650, read-out: IC50 in cell proliferation assay, NCI-H1650 cell line (EGFR exon19del)
  IC50: 3380 nM
Homo sapiens, NCI-H1975, read-out: IC50 in cell proliferation assay, NCI-H1975 cell line (EGFR p.L858R + p.T790M)
  IC50: 1920 nM
Homo sapiens, NCI-H2228, read-out: IC50 in cell proliferation assay, NCI-H2228 cell line (EML4-ALK)
  IC50: 38 nM
Homo sapiens, OVCAR-3, read-out: IC50 in cell proliferation assay, cell line OVCAR-3
  IC50: 5140 nM
Homo sapiens, PFSK-1, read-out: IC50 in cell proliferation assay, cell line PFSK-1
  IC50: 1540 nM
Homo sapiens, RL95-2, read-out: IC50 in cell proliferation assay, cell line RL95-2 (EGFR p.A289V)
  IC50: 1760 nM
Homo sapiens, RPMI-7951, read-out: IC50 in cell proliferation assay, cell line RPMI-7951 (BRAF p.V600E)
  IC50: 3680 nM
Homo sapiens, RS4-11, read-out: IC50 in cell proliferation assay, cell line RS4;11
  IC50: 1080 nM
Homo sapiens, Rec1, read-out: IC50 in cell proliferation assay, cell line REC-1
  IC50: 2210 nM
Homo sapiens, SHP77, read-out: IC50 in cell proliferation assay, cell line SHP-77
  IC50: 3400 nM
Homo sapiens, SK-BR-3, read-out: IC50 in cell proliferation assay, cell line SK-BR-3 (ERBB2 amplification)
  IC50: 3910 nM
Homo sapiens, SK-N-AS, read-out: IC50 in cell proliferation assay, cell line SK-N-AS
  IC50: 2090 nM
Homo sapiens, SK-N-FI, read-out: IC50 in cell proliferation assay, cell line SK-N-FI
  IC50: 537 nM
Homo sapiens, SK-N-MC, read-out: IC50 in cell proliferation assay, cell line SK-N-MC
  IC50: 709 nM
Homo sapiens, SK-N-SH, read-out: IC50 in cell proliferation assay, cell line SK-N-SH (ALK p.F1174L)
  IC50: 875 nM
Homo sapiens, SNU-5, read-out: IC50 in cell proliferation assay, cell line SNU-5 (MET amplification)
  IC50: 3870 nM
Homo sapiens, SNU-16, read-out: IC50 in cell proliferation assay, cell line SNU-16 (FGFR2 amplification)
  IC50: 3800 nM
Homo sapiens, SNU-C2B, read-out: IC50 in cell proliferation assay, cell line SNU-C2B (EGFR p.R165Q)
  IC50: 2540 nM
Homo sapiens, SU-DHL-1, read-out: IC50 in cell proliferation assay, cell line SU-DHL-1 (NPM1-ALK)
  IC50: 192 nM
Homo sapiens, SU-DHL-6, read-out: IC50 in cell proliferation assay, cell line SU-DHL-6
  IC50: 2950 nM
Homo sapiens, SUP-T1, read-out: IC50 in cell proliferation assay, cell line SUP-T1
  IC50: 3500 nM
Homo sapiens, SW48, read-out: IC50 in cell proliferation assay, cell line SW48 (EGFR p.G719S)
  IC50: 1290 nM
Homo sapiens, SW480, read-out: IC50 in cell proliferation assay, cell line SW480
  IC50: 2440 nM
Homo sapiens, SW626, read-out: IC50 in cell proliferation assay, cell line SW626
  IC50: 3430 nM
Homo sapiens, SW780, read-out: IC50 in cell proliferation assay, cell line SW780 (FGFR3-BAIAP2L1)
  IC50: 2070 nM
Homo sapiens, SW837, read-out: IC50 in cell proliferation assay, cell line SW837
  IC50: 2940 nM
Homo sapiens, SW872, read-out: IC50 in cell proliferation assay, cell line SW872 (BRAF p.V600E)
  IC50: 2780 nM
Homo sapiens, SW900, read-out: IC50 in cell proliferation assay, cell line SW900
  IC50: 2340 nM
Homo sapiens, SW948, read-out: IC50 in cell proliferation assay, cell line SW948
  IC50: 2280 nM
Homo sapiens, SW982, read-out: IC50 in cell proliferation assay, cell line SW982 (BRAF p.V600E)
  IC50: 4150 nM
Homo sapiens, SW-620, read-out: IC50 in cell proliferation assay, cell line SW620
  IC50: 1560 nM
Homo sapiens, T98G, read-out: IC50 in cell proliferation assay, cell line T98G
  IC50: 4700 nM
Homo sapiens, TCC-SUP, read-out: IC50 in cell proliferation assay, cell line TCCSUP
  IC50: 3820 nM
Homo sapiens, THP-1, read-out: IC50 in cell proliferation assay, cell line THP-1
  IC50: 4760 nM
Homo sapiens, U2OS, read-out: IC50 in cell proliferation assay, cell line U2OS
  IC50: 3860 nM
Homo sapiens, U-87 MG, read-out: IC50 in cell proliferation assay, cell line U-87MG ATCC
  IC50: 4440 nM
Homo sapiens, U-118-MG, read-out: IC50 in cell proliferation assay, cell line U-118MG
  IC50: 3850 nM
Homo sapiens, UMUC3, read-out: IC50 in cell proliferation assay, cell line UM-UC-3
  IC50: 2570 nM
Hs766T, read-out: IC50 in cell proliferation assay, Hs 766T cell line
  IC50: 3520 nM
L-82, read-out: IC50 in cell proliferation assay, L-82 cell line (NPM1-ALK)
  IC50: 33 nM
Rh30, read-out: IC50 in cell proliferation assay, cell line Rh30
  IC50: 1010 nM
read-out: IC50 in cell proliferation assay, 11-18 cell line (EGFR p.L858R)
  IC50: 2090 nM
read-out: IC50 in cell proliferation assay, Hs 852.T cell line
  IC50: 1870 nM
read-out: IC50 in cell proliferation assay, JAR cell line
  IC50: 3580 nM
read-out: IC50 in cell proliferation assay, cell line 5637
  IC50: 2490 nM
read-out: IC50 in cell proliferation assay, cell line A-388
  IC50: 3640 nM
read-out: IC50 in cell proliferation assay, cell line DB
  IC50: 3990 nM
read-out: IC50 in cell proliferation assay, cell line DEL (NPM1-ALK)
  IC50: 62 nM
read-out: IC50 in cell proliferation assay, cell line ES-2 (BRAF p.V600E)
  IC50: 2810 nM
read-out: IC50 in cell proliferation assay, cell line PA-1
  IC50: 2080 nM
read-out: IC50 in cell proliferation assay, cell line PC-3
  IC50: 4060 nM
read-out: IC50 in cell proliferation assay, cell line RD
  IC50: 1710 nM
read-out: IC50 in cell proliferation assay, cell line RKO (BRAF p.V600E)
  IC50: 1630 nM
read-out: IC50 in cell proliferation assay, cell line RL
  IC50: 4060 nM
read-out: IC50 in cell proliferation assay, cell line RT-4 (FGFR3-TACC3)
  IC50: 4050 nM
read-out: IC50 in cell proliferation assay, cell line SR (NPM1-ALK)
  IC50: 200 nM
read-out: IC50 in cell proliferation assay, cell line T24
  IC50: 4040 nM
read-out: IC50 in cell proliferation assay, cell line TT (RET p.C634W)
  IC50: 3830 nM
read-out: IC50 in cell proliferation assay, cell line VA-ES-BJ
  IC50: 4250 nM

From article PMC9516332 (Frontiers in Oncology, 2022)
